Test results from patent US9913801B2 (YOUR ENERGY SYSTEMS, LLC, priority 2013, dated 2018).
Like-named read-outs stand apart in the source and are kept apart here.

What was measured:
[1] = test system: Mycobacterium tuberculosis; conditions: at 10 millimolar
[2] = rat liver, cited from earlier work

| Compound | Mycobacterium tuberculosis CFU/ml [1] | removal of toxin ([2]; intravenous) [%] | removal of toxin ([2]; oral) [%] |
| --- | --- | --- | --- |
| CC(=O)N[C@@H](CS)C(=O)O [NAC, N-Acetyl Cysteine] | 8,000 CFU/ml | – | – |
| N[C@@H](CCC(=O)N[C@@H](CS)C(=O)NCC(=O)O)C(=O)O [Plain glutathione, glutathione] | – | 64 | 0 |
